Assay results: patent US6579898B2, “Compositions having improved bioavailability” (Pfizer Inc., priority 2001, dated 2003)

Experiments:
[1] = in vivo
[2] = Eletriptan transport across Caco-2 cell monolayers, effect of concentration; format: in vitro ADME, human; details: human, 2 hours, 37° C.
Experimental: (§1) Caco-2 cell monolayers were grown on permeable 24 well filter supports (1 μm poresize) and used at Day 15-28.
(§2) In studies examining the effect of concentration, 1, 10, 25 and 100 μM solutions of eletriptan in HBSS were added to the donor chamber and Hank's balanced salt solution (HBSS) was added to the acceptor chamber. The volume of the apical and basolateral chambers were 0.25 ml and 1 ml respectively.

[3] = tested on: Human Intestinal (Caco-2) Cell Monolayers; test: as above; format: in vitro ADME; details: Caco-2, higher secretory than absorptive flux at low concentrations
Experimental: as §1, §2

[4] = Effect of Vitamin E-TPGS on the pharmacokinetics of eletriptan in beagle dogs; format: in vivo; details: male, dog, plasma, oral, fasted, 0.2 or 1.0 mg/kg eletriptan with or without 6.67 mg/kg Vitamin E-TGPS
Experimental: This was a crossover study to assess the effects of Vitamin E-TGPS on the rate of absorption of eletriptan. Four male beagle dogs were orally dosed in the fasted state with a 20 ml aqueous formulation comprising
(a) 0.2 mg/kg eletriptan;
(b) 0.2 mg/kg eletriptan coformulated with 6.67 mg/kg of Vitamin E-TGPS;
(c) 1.0 mg/kg eletriptan; and
(d) 1.0 mg/kg eletriptan coformulated with 6.67 mg/kg of Vitamin E-TGPS.
Blood samples (2.5 ml) were collected at 0, 0.17, 0.33, 0.5, 1, 2, 4, 6, 8, 12 and 24 hours after dosing and centrifuged. The resulting plasma samples were deep frozen until analysed for eletriptan by hplc with electrochemical detection.

[5] = target: p-gp (Homo sapiens, UniProt P08183); test: in vitro; details: Caco-2
p-gp, sequence (P08183 whole entry): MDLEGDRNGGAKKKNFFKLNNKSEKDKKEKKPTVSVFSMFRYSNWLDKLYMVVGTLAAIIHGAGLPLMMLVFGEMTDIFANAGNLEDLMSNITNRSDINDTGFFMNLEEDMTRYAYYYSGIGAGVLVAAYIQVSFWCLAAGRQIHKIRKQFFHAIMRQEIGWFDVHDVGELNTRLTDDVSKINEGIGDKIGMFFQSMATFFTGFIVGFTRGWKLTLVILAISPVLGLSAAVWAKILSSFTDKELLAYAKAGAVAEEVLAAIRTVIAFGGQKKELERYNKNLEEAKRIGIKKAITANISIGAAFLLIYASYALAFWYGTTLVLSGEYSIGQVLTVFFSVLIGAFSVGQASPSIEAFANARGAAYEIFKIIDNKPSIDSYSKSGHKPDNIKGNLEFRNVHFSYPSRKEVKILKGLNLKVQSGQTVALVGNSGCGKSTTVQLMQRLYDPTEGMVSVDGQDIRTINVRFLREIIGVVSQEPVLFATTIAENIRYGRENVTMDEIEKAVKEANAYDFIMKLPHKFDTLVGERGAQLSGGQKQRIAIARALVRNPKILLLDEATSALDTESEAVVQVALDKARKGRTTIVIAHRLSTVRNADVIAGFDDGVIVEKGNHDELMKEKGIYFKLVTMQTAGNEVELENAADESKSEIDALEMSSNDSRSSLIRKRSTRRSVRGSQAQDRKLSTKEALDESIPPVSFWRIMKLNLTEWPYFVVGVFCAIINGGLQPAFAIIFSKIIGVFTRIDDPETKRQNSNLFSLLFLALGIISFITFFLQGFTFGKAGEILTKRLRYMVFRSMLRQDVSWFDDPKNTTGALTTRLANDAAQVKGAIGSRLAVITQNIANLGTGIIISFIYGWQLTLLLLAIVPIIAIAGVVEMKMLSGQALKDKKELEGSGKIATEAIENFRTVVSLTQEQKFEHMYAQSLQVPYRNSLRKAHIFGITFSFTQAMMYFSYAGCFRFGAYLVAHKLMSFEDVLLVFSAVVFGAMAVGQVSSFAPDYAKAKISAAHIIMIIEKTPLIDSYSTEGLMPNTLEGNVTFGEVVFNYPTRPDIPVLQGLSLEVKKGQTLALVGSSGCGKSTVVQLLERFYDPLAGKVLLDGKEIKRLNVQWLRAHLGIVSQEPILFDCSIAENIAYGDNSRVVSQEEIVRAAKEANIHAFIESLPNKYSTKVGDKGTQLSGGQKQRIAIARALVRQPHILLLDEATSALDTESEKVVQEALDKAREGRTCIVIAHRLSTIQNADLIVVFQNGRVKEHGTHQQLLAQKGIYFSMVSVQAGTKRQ

eletriptan kel with the inhibitor [1]	Papp A→B at 2 h, 1 μM ([2]; Caco-2, 1 μM eletriptan, read-out: Absorptive A -> B Papp) [×10⁻⁶ cm/s]	Papp B→A at 2 h, 1 μM ([2]; Caco-2, 1 μM eletriptan, read-out: Secretory B -> A Papp) [×10⁻⁶ cm/s]	Papp A→B at 2 h, 10 μM ([2]; Caco-2, 10 μM eletriptan, read-out: Absorptive A -> B Papp) [×10⁻⁶ cm/s]	Papp B→A at 2 h, 10 μM ([2]; Caco-2, 10 μM eletriptan, read-out: Secretory B -> A Papp) [×10⁻⁶ cm/s]	Papp A→B at 2 h, 25 μM ([2]; Caco-2, 25 μM eletriptan, read-out: Absorptive A -> B Papp) [×10⁻⁶ cm/s]	Papp B→A at 2 h, 25 μM ([2]; Caco-2, 25 μM eletriptan, read-out: Secretory B -> A Papp) [×10⁻⁶ cm/s]	Papp A→B at 2 h, 100 μM ([2]; Caco-2, 100 μM eletriptan, read-out: Absorptive A -> B Papp) [×10⁻⁶ cm/s]	Papp B→A at 2 h, 100 μM ([2]; Caco-2, 100 μM eletriptan, read-out: Secretory B -> A Papp) [×10⁻⁶ cm/s]	substrate for the p-gp efflux transporter [3]	Cmax [4] [ng/mL]	Tmax [4] [h]	Papp A→B at 2 h, 10 μM [5] [×10⁻⁶ cm/s]	Papp B→A at 2 h, 10 μM [5] [×10⁻⁶ cm/s]	SMILES
significantly reduced														CC[C@H]1OC(=O)[C@H](C)[C@@H](O[C@H]2C[C@@](C)(OC)[C@@H](O)[C@H](C)O2)[C@H](C)[C@@H](O[C@@H]2O[C@H](C)C[C@H](N(C)C)[C@H]2O)[C@](C)(O)C[C@@H](C)C(=O)[C@H](C)[C@@H](O)[C@]1(C)O [erythromycin]
	17	41.8	20.2	36.1	21.1	34.1	29.9	32.8	substrate	7 to 15	1 to 1.7	16	32.6	CN1CCC[C@@H]1Cc1c[nH]c2ccc(CCS(=O)(=O)c3ccccc3)cc12 [eletriptan]
significantly reduced														CC(=O)N1CCN(c2ccc(OCC3COC(Cn4ccnc4)(c4ccc(Cl)cc4Cl)O3)cc2)CC1 (stereo not drawn) [ketoconazole]
